Tested on: 616215-338-R-J1-PDC complex spheroid growth, % test/control
Experiment: Anticancer human tumor 616215-338-R-J1-PDC patient-derived colon adenocarcinoma cell line growth inhibition [Asc]
Details: for IC50: curve of first compound; for viability, T/C: stronger effect = lower value
Outline: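 Concentration series start at each agent's clinical Cmax, or at 10 microM when none is established, and drop in half-log steps; agents are applied alone or together to complex spheroids built with HUVEC and hMSC.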

[1] = second compound 0.1 µM, first compound 0.00316 µM
[2] = second compound 0.1 µM, first compound 0.01 µM
[3] = second compound 0.1 µM, first compound 0.0316 µM
[4] = second compound 0.1 µM, first compound 0.1 µM
[5] = second compound 0.316 µM, first compound 0.00316 µM
[6] = second compound 0.316 µM, first compound 0.01 µM
[7] = second compound 0.316 µM, first compound 0.0316 µM
[8] = second compound 0.316 µM, first compound 0.1 µM
[9] = second compound 1 µM, first compound 0.00316 µM
[10] = second compound 1 µM, first compound 0.01 µM
[11] = second compound 1 µM, first compound 0.0316 µM
[12] = second compound 1 µM, first compound 0.1 µM
[13] = second compound 3.16 µM, first compound 0.00316 µM
[14] = second compound 3.16 µM, first compound 0.01 µM
[15] = second compound 3.16 µM, first compound 0.0316 µM
[16] = second compound 3.16 µM, first compound 0.1 µM
[17] = second compound 10 µM, first compound 0.00316 µM
[18] = second compound 10 µM, first compound 0.01 µM
[19] = second compound 10 µM, first compound 0.0316 µM
[20] = second compound 10 µM, first compound 0.1 µM
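Note: spheroids exposed to agents for seven days before readout.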
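Throughout, for viability, T/C: 100% = DMSO vehicle control viability.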

Row | IC50 (second compound 0.1 µM) [nM] | IC50 (second compound 0.316 µM) [nM] | IC50 (second compound 1 µM) [nM] | IC50 (second compound 3.16 µM) [nM] | IC50 (second compound 10 µM) [nM] | SMILES | viability, T/C [1] [%] | viability, T/C [2] [%] | viability, T/C [3] [%] | viability, T/C [4] [%] | viability, T/C [5] [%] | viability, T/C [6] [%] | viability, T/C [7] [%] | viability, T/C [8] [%] | viability, T/C [9] [%] | viability, T/C [10] [%] | viability, T/C [11] [%] | viability, T/C [12] [%] | viability, T/C [13] [%] | viability, T/C [14] [%] | viability, T/C [15] [%] | also measured
1 | > 1000 | > 1000 | > 1000 | < 3.16 | < 3.16 | CCN1CCN(Cc2ccc(Nc3ncc(F)c(-c4cc(F)c5nc(C)n(C(C)C)c5c4)n3)nc2)CC1 + Cc1c(S(C)(=O)=O)c(-c2cc(F)cc(N3CCN(c4ccc(NS(=O)(=O)c5ccc(NC(CCN6CCC(C(=O)OCCCP(=O)(O)O)CC6)CSc6ccccc6)c(S(=O)(=O)C(F)(F)F)c5)cc4)CC3)c2)c(-c2ccc(Cl)cc2)n1C(C)C | 92.5 | 89.3 | 92.6 | 96.5 | 86 | 84.9 | 93.2 | 99.7 | 68.5 | 75.8 | 77.9 | 78 | 45.9 | 52.7 | 58.6 | viability, T/C (second compound 0.1 µM, first compound 0.316 µM): 100%; viability, T/C (second compound 0.1 µM, first compound 1 µM): 129%; viability, T/C (second compound 0.316 µM, first compound 0.316 µM): 109%; viability, T/C (second compound 0.316 µM, first compound 1 µM): 130%; viability, T/C (second compound 1 µM, first compound 0.316 µM): 99.3%; viability, T/C (second compound 1 µM, first compound 1 µM): 95.9%; viability, T/C [16]: 69%; viability, T/C (second compound 3.16 µM, first compound 0.316 µM): 86.1%; viability, T/C (second compound 3.16 µM, first compound 1 µM): 54.8%; viability, T/C [17]: 30%; viability, T/C [18]: 32.9%; viability, T/C [19]: 34%; viability, T/C [20]: 39.4%; viability, T/C (second compound 10 µM, first compound 0.316 µM): 67.7%; viability, T/C (second compound 10 µM, first compound 1 µM): 24.7%
2 | > 100 | > 100 | 15.4 | < 0.316 | < 0.316 | Cn1ncnc1[C@H]1c2n[nH]c(=O)c3cc(F)cc(c23)N[C@@H]1c1ccc(F)cc1 + Cc1c(S(C)(=O)=O)c(-c2cc(F)cc(N3CCN(c4ccc(NS(=O)(=O)c5ccc(NC(CCN6CCC(C(=O)OCCCP(=O)(O)O)CC6)CSc6ccccc6)c(S(=O)(=O)C(F)(F)F)c5)cc4)CC3)c2)c(-c2ccc(Cl)cc2)n1C(C)C | 85.2 | 90.1 | 86.2 | 84.9 | 90.8 | 85.8 | 76.6 | 69.3 | 63.7 | 54 | 42.7 | 32.9 | 27.3 | 15.8 | 9.58 | viability, T/C (second compound 0.1 µM, first compound 0.000316 µM): 88.5%; viability, T/C (second compound 0.1 µM, first compound 0.001 µM): 104%; viability, T/C (second compound 0.316 µM, first compound 0.000316 µM): 86.4%; viability, T/C (second compound 0.316 µM, first compound 0.001 µM): 87.6%; viability, T/C (second compound 1 µM, first compound 0.000316 µM): 66.9%; viability, T/C (second compound 1 µM, first compound 0.001 µM): 67.8%; viability, T/C (second compound 3.16 µM, first compound 0.000316 µM): 38.9%; viability, T/C (second compound 3.16 µM, first compound 0.001 µM): 39%; viability, T/C [16]: 4.09%; viability, T/C (second compound 10 µM, first compound 0.000316 µM): 25.9%; viability, T/C (second compound 10 µM, first compound 0.001 µM): 20%; viability, T/C [17]: 10.4%; viability, T/C [18]: 4.53%; viability, T/C [19]: 2.52%; viability, T/C [20]: 1.65%
